Results on 18 compounds are retold here after ChEMBL document CHEMBL5614412, “Regulation of protein phosphorylation by PTPN2 and its small-molecule inhibitors/degraders as a potential disease treatment strategy” (Eur J Med Chem, 2024).

The structures appear in SMILES notation. Starred links: 1 amine or outer side, 2 acyl side, 3 side chain; linkers in the order of their positions; H or OH if unused. Non-standard residues stand in square brackets, D forms with d. Residues, ends and D or L forms follow the SMILES beside them. ξ: configuration not given here. *: point of attachment. NHCH2(1,3-C6H4)CH2CO = O=C(Cc1cccc(CN[*:1])c1)[*:2]; ξF2Pmp = NC(Cc1ccc(C(F)(F)P(=O)(O)O)cc1)C(=O)O; Benzoyl(3-Br,4-Me) = Cc1ccc(C(=O)*)cc1Br; ξPro(4R-OH) = O=C(O)C1C[C@@H](O)CN1; X2 = Cc1ncsc1-c1ccc([C@H](C)N*)cc1; Tle = CC(C)(C)[C@H](N)C(=O)O; X1 = COc1ccc(CC(=O)*)cc1O

One assay deals with B16. In words: Antiproliferative activity against mouse B16 cells. It counts as functional, cell-based.
The target of assay [1] is T1, Tyrosine-protein phosphatase non-receptor type 1 (Homo sapiens, UniProt P18031).
T1 sequence (P18031 whole entry): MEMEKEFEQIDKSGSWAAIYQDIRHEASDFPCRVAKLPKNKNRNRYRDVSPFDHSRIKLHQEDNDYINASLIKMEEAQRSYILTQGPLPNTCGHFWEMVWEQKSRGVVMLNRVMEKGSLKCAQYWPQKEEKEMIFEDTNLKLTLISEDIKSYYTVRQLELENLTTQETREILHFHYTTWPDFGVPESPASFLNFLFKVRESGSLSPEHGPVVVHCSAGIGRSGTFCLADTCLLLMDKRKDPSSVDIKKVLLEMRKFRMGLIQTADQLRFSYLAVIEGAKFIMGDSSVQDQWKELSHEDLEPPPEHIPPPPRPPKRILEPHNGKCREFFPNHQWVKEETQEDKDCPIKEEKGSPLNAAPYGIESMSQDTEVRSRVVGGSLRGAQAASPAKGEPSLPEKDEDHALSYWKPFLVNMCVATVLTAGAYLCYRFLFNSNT
In words: Inhibition of PTP1B (unknown origin).

Assay [2] deals with T2, Tyrosine-protein phosphatase non-receptor type 2 (Homo sapiens, UniProt P17706).
T2 sequence (P17706 whole entry): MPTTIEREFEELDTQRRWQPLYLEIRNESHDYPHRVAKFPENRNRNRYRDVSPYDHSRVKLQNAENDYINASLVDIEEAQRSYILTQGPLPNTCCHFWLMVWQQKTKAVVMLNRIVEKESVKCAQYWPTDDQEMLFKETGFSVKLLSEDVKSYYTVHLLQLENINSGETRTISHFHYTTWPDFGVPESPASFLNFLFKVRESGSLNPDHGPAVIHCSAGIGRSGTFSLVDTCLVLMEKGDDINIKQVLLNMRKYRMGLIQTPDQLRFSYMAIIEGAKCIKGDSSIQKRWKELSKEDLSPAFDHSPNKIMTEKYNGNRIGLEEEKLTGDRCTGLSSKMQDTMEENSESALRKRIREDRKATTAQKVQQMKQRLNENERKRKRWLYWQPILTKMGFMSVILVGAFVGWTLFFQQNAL
In words: Inhibition of PTPN2 (unknown origin).

The target of assay [3] is Protein cereblon/Tyrosine-protein phosphatase non-receptor type 1 (Homo sapiens, UniProt P18031+Q96SW2). In words: PROTAC activity at PTP1B/CRBN in HEK293 cells assessed as protein degradation measured for 48 hrs by Western blot analysis. It counts as cell-based.
Chain of Protein cereblon/Tyrosine-protein phosphatase non-receptor type 1 (Q96SW2 whole entry, one chain of several): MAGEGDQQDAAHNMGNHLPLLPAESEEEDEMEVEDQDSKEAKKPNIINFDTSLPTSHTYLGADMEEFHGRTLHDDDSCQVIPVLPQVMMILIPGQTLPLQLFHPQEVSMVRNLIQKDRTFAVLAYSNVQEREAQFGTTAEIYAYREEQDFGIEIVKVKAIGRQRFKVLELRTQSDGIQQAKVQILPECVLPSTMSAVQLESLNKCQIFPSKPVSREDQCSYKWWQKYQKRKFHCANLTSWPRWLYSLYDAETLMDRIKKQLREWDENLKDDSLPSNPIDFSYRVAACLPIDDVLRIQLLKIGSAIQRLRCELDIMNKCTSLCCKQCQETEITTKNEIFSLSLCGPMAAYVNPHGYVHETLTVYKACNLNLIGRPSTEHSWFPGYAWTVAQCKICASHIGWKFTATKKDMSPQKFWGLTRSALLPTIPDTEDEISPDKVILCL
Assay [4] addresses Protein cereblon/Tyrosine-protein phosphatase non-receptor type 2 (Homo sapiens, UniProt P17706+Q96SW2). In words: PROTAC activity at PTPN2/CRBN in HEK293 cells assessed as protein degradation measured for 48 hrs by Western blot analysis. It counts as cell-based.
For another assay, the species on record is Homo sapiens. In words: Selectivity index, ratio of DC50 for PROTAC activity at PTP1B/CRBN in HEK293 cells to DC50 for PROTAC activity at PTPN2/CRBN in HEK293 cells. It counts as cell-based.
Assay [5] can be described thus: Inhibition of PTP1B/PTPN2 (unknown origin) in mouse B16 cells. It counts as cell-based, Homo sapiens.
The target in assay [6] is T2, Tyrosine-protein phosphatase non-receptor type 2.
Description: Inhibition of human PTPN2 extracted from Escherichia coli BL21 (DE3) by fluorescence based analysis
Assay [7] has the same target. This is another data set of the same source.
Description: Inhibition of full-length human recombinant PTPN2 incubated for 20 mins by mobile shift assay

Chain of Protein cereblon/Tyrosine-protein phosphatase non-receptor type 2 (Q96SW2 whole entry, one chain of several): as above

For `CC(C)CCNC1CNc2cc(O)c(N3CC(=O)NS3(=O)=O)c(F)c2C1` (centres undefined), in the assay with B16, it took 1.4 µM to reach half-maximal inhibition (IC50).
Compound `CC1(C)CCC[C@H](NCc2cc(O)c(N3CC(=O)NS3(=O)=O)c(F)c2)C1` had an IC50 in the assay with B16 of 0.77 µM.
As to `O=C1CN(c2c(O)cc3c(c2F)C[C@H](NCCCC(F)F)CS3)S(=O)(=O)N1`, the values for the IC50 (in [1]; in assay [2]; with B16) were under 0.01 µM, under 0.01 µM and 0.16 µM, respectively.
`COc1cc(CC(=O)NC(Cc2ccccc2)C(=O)NC(Cc2ccc(C(F)(F)P(=O)(O)O)cc2)C(=O)N[C@@H](CCCCNC(=O)c2ccc(C)c(Br)c2)C(N)=O)ccc1O` (some centres undefined) returned a 50% inhibitory concentration (IC50) in assay [1] of 0.12 µM.
For `CC[C@@H]1CCN(CCc2cc(O)c(N3CC(=O)NS3(=O)=O)c(F)c2)C1`, the half-inhibitory concentration (IC50) in the assay on B16 stood at 0.13 µM.
In turn, `CCc1cc(C[C@H](NC(C)=O)C(=O)NCCCCOc2cccc(O)c2C(=O)OC)ccc1N(C(=O)C(=O)O)c1ccccc1C(=O)O` came in with an IC50 in assay [2] of 0.065 µM. This lies in the double-digit nanomolar range.
On to `Cc1ncsc1-c1ccc(C(C)CC(=O)[C@H]2C[C@H](O)CN2C(=O)[C@@H](NC(=O)CCCCCNC(=O)n2cc(-c3ccc4cc(O)c(N5CC(=O)NS5(=O)=O)c(F)c4c3)cn2)C(C)(C)C)cc1` (some centres undefined), for which the results for the DC50 in assay [3] and in assay [4] were 13.1 µM and 0.217 µM, respectively. The Selectivity Index in the assay filed under Homo sapiens is over 60.
For the compound `CC(C)CCN[C@@H]1C[C@H]2C[C@@H]1c1c2cc(O)c(N2CC(=O)NS2(=O)=O)c1F`, half-maximal inhibition in the assay on B16 (IC50) was put at 7.82 µM.
Turning to `CC1(C)C[C@H](Nc2cccc(-c3sc(C(=O)O)c(OCC(=O)O)c3Cl)c2)CCN1S(=O)(=O)Cc1cccc(NC(=O)N2CCC(c3ccc4c5c(cccc35)C(=O)N4[C@@H]3CCC(=O)NC3=O)CC2)c1`, the half-maximal degradation concentration (DC50) in assay [4] is under 0.1 µM.
Consider `CC(C)CCN[C@@H]1CCc2cc(O)c(N3CC(=O)NS3(=O)=O)c(F)c2C1` [OSUNPROTAFIB], for which it took 0.18 µM to reach a half-maximal effect in [5] (EC50). Also, the IC50 with B16 amounted to 0.064 µM; in assay [6], 0.0018 µM; in assay [7] it was 0.0018 µM.
For the compound `O=C1CN(c2c(O)cc3c(c2F)C[C@H](NCCC(F)F)N3)S(=O)(=O)N1`, the values for the IC50 (in assay [1]; in assay [2]; in the assay on B16) were 0.01 µM, 0.01 µM and 0.7 µM, respectively.
As for `CC1CCN=C(Nc2cc(O)c(N3CC(=O)NS3(=O)=O)c(F)c2)N1` (centres undefined), the IC50 amounted to 0.01 µM in assay [2] and 5 µM with B16.
For `COc1ccc(CC(=O)N[C@@H](Cc2ccccc2)C(=O)NC(Cc2ccc(C(F)(F)P(=O)(O)O)cc2)C(=O)N[C@@H](CCCCNC(=O)c2ccc(C)c(Br)c2)C(=O)NCc2cccc(CC(=O)N[C@H](C(=O)N3C[C@H](O)CC3C(=O)N[C@@H](C)c3ccc(-c4scnc4C)cc3)C(C)(C)C)c2)cc1O` (stereo partly drawn) (X1-F[ξF2Pmp]K(Benzoyl(3-Br,4-Me))[NHCH2(1,3-C6H4)CH2CO][Tle][ξPro(4R-OH)]-X2), the 50% degradation concentration (DC50) in assay [3] amounted to 0.0148 µM; in assay [4], 0.007 µM. The Selectivity Index in the assay filed under Homo sapiens was 2.1.
In assay [5], `O=C1CN(c2c(O)cc3ccc(NCC4CC4)cc3c2F)S(=O)(=O)N1` showed an EC50 of 2.65 µM. The half-maximal inhibitory concentration (IC50) in [6] and in assay [7] was 0.0039 µM throughout.
With `CCc1ccc(C(=O)NCCCC[C@H](NC(=O)[C@H](Cc2ccc(C(F)(F)P(=O)(O)O)cc2)NC(=O)[C@H](Cc2ccccc2)NC(=O)O[C@H]2C[C@@H](C)CC[C@@H]2C(C)C)C(=O)NCCOCCC(=O)Nc2cccc3c2CN(C2CCC(=O)NC2=O)C3=O)cc1` (some centres undefined), the DC50 in assay [4] amounted to 0.0358 µM. The Selectivity Index in the assay filed under Homo sapiens is over 110.
As to `O=C1CN(c2c(O)cc(NC(=O)NC3CCCCC3)cc2F)S(=O)(=O)N1`, the IC50 was under 0.005 µM in [2] and under 5 µM in the assay with B16.
In turn, `N#Cc1ccc2cc(Br)c(C(F)(F)P(=O)(O)O)cc2c1` registered an IC50 in assay [2] of 0.0071 µM.
For the compound `Cn1c(=O)n(C2CCC(=O)NC2=O)c2ccc(-c3ccc(CC(=O)Nc4ccc5c(F)c(N6CC(=O)NS6(=O)=O)c(O)cc5c4)cc3)cc21` (centres undefined), the DC50 in assay [4] is 0.01 µM.
